Test results taken from patent publication US5602101A, “Antithrombotic agents” (priority 1994, dated 1997).

Experiments:
human thrombin = molecular target: T1, human thrombin (Homo sapiens, UniProt P00734); assay: Inhibition of amidase activity of thrombin (chromogenic substrate), Kass; assay type: biochemical; conditions: substrate N-benzoyl-Phe-Val-Arg-p-nitroanilide, pH 7.4
T1 construct: purified human thrombin Enzyme Research Laboratories, South Bend, Ind; purchased Enzyme Research Laboratories, South Bend, Ind
Experimental: (§1) The assay is carried out by mixing 50 μl buffer (0.03M Tris, 0.15M NaCl, pH 7.4), 25 μl of human thrombin solution (purified human thrombin Enzyme Research Laboratories, South Bend, Ind.) at 8 NIH units/ml and 25 μl of test compound in a solvent (50% aqueous methanol (v:v)). Then 150 μl of an aqueous solution of the chromogenic substrate (at 0.25 mg/ml) are added and the rates of hydrolysis of the substrate are measured by monitoring the reactions at 405 nm for the release of p-nitroaniline. Standard curves are constructed by plotting free thrombin concentration against hydrolysis rate. The hydrolysis rates observed with test compounds are then converted to "free thrombin" values in the respective assays by use of the standard curves. The bound thrombin (bound to test compound) is calculated by subtracting the amount of free thrombin observed in each assay from the known initial amount of thrombin used in the assay. The amount of free inhibitor in each assay is calculated by subtracting the number of moles of bound thrombin from the number of moles of added inhibitor (test compound).
The Kass value is the hypothetical equilibrium constant for the reaction between thrombin and the test compound (I). [drawing 53]
(§2) Kass is calculated for a range of concentrations of test compounds and the mean value is reported in units of liter per mole.

factor Xa = molecular target: T2, factor Xa (Homo sapiens, UniProt P00742); assay: Serine protease inhibition, factor Xa (chromogenic substrate), Kass; assay type: biochemical; conditions: substrate N-Benzoyl-Ile-Glu-Gly-Arg-p-nitroanilide
T2 construct: Human factors X, Xa, IXa, XIa, and xIIa are purchased from Enzyme Research Laboratories; purchased Enzyme Research Laboratories, South Bend, Ind
Experimental: as §1, §2
(§3) By substantially following the procedures described above for human thrombin, and using other human blood coagulation system serine proteases, and using fibrinolytic system serine proteases, with the appropriate chromogenic substrate, identified below, selectivity of the compounds of the present invention with respect to the coagulation factor serine proteases and to the fibrinolytic serine proteases are evaluated as well as their substantial lack of interference with human plasma clot fibrinolysis.
(§4) Human factors X, Xa, IXa, XIa, and xIIa are purchased from Enzyme Research Laboratories, South Bend, Ind.; human urokinase from Leo Pharmaceuticals, Denmark; and recombinant activated Protein C (aPC) is prepared at Eli Lilly and Co. substantially according to U.S. Pat. No. 4,981,952 incorporated by reference herein in its entirety. Chromogenic substrates: N-Benzoyl-Ile-Glu-Gly-Arg-p-nitroanilide (for factor Xa); N-Cbz-D-Arg-Gly-Arg-p-nitroanilide (for factor IXa assay as the factor Xa substrate) pyroglutamyl-Pro-Arg-p-nitroanilide (for factor XIa and for aPC); H-D-Pro-Phe-Arg-p-nitroanilide (for factor XIIa); and pyroglutamyl-Gly-Arg-p-nitroanilide (for urokinase); are purchased from KabiVitrum, Stockholm, Sweden, or from Midwest Biotech, Fishers, Indiana. Bovine trypsin is purchased from Worthington Biochemicals, Freehold, N.J., and human plasma kallikrein from Kabi Vitrum, Stockholm, Sweden. N-Benzoyl-Phe-Val-Arg-p-nitroanilide, the substrate for human thrombin and for trypsin, is synthesized according to procedures described above for the compounds of the present invention, known methods of peptide coupling from commercially available reactants, or was purchased from Midwest Biotech, Fishers, Ind. Human plasmin is purchased from Boehringer Mannheim, Indianapolis, Ind.; nt-PA is purchased as single chain activity reference from American Diagnostics, Greenwich, Conn.; modified-t-PA6 (mt-PA6) is prepared at Eli Lilly and Company by procedure known in the art (See, Burck, et al., J. Biol. Chem., 265, […] (1990). Plasmin chromogenic substrate H-D-Val-Leu-Lys-p-nitroanilide and tissue plasminegen activator (t-PA) substrate H-D-Ile-Pro-Arg-p-nitroanilide are purchased from Kabi Vitrum, Stockholm, Sweden.

Bovine trypsin = molecular target: T3, Bovine trypsin (Bos taurus, UniProt P00760); assay: Serine protease inhibition, trypsin (chromogenic substrate), Kass; assay type: biochemical; conditions: substrate N-Benzoyl-Phe-Val-Arg-p-nitroanilide
T3 construct: Bovine trypsin is purchased from Worthington Biochemicals, Freehold, N.J; purchased Worthington Biochemicals, Freehold, N.J
T3 sequence (P00760 24-246): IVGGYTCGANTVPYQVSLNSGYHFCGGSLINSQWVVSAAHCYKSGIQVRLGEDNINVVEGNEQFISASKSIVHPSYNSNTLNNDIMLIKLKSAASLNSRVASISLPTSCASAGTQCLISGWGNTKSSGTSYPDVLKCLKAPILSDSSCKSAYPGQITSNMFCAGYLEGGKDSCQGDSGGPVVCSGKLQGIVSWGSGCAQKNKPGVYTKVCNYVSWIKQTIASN
Experimental: as §1, §2, §3, §4

Human plasmin = molecular target: T4, Human plasmin (Homo sapiens, UniProt P00747); assay: Serine protease inhibition, plasmin (chromogenic substrate), Kass; assay type: biochemical; conditions: substrate H-D-Val-Leu-Lys-p-nitroanilide
T4 construct: Human plasmin is purchased from Boehringer Mannheim, Indianapolis, Ind; purchased Boehringer Mannheim, Indianapolis, Ind
Experimental: as §1, §2, §3, §4

[1] = molecular target: T5, tissue plasminogen activator (t-PA) (Homo sapiens, UniProt P00750); assay: Serine protease inhibition, t-PA (chromogenic substrate), Kass; assay type: biochemical; conditions: substrate H-D-Ile-Pro-Arg-p-nitroanilide
T5 construct: purchased American Diagnostics, Greenwich, Conn
Experimental: as §1, §2, §3, §4

Human Plasma [2] = assay: Anticoagulation in human plasma, thrombin time (TT); assay type: biochemical; conditions: concentration required to double the thrombin time
Experimental: (§5) Dog plasma and rat plasma are obtained from conscious mixed-breed hounds (either sex, Hazelton-LRE, Kalamazoo, Mich., U.S.A.) or from anesthetized male Sprague-Dawley rats (Harlan Sprague-Dawley, Inc., Indianapolis, Ind., U.S.A.) by venipuncture into 3.8 percent citrate. Fibrinogen is prepared from in-date ACD human blood as the fraction I-2 according to previous procedures and specifications. Smith, Biochem. Chem. […] Human fibrinogen is also purchased as 98 percent pure/plasmin free from American Diagnostics, Greenwich, Conn. Coagulation reagents ACTIN, Thromboplastin, and Human plasma are from Baxter Healthcare Corp., Dade Division, Miami, Fla. Bovine thrombin from Parke-Davis (Ann Arbor, Mich.) is used for coagulation assays in plasma. Coagulation assay procedures are as previously described. Smith, et al., Thrombosis Research, 5, 163-174 (1988). A CoAScreener coagulation instrument (American LABor, Inc.) is used for all coagulation assay measurements. The prothrombin time (PT) is measured by adding 0.05 ml saline and 0.05 ml Thromboplastin-C reagent to 0.05 ml test plasma. The activated partial thromboplastin time (APTT) is measured by incubation of 0.05 ml test plasma with 0.05 ml Actin reagent for 120 seconds followed by 0.05 ml CaCl2 (0.02M). […] The compounds of formula I are added to human or animal plasma over a wide range of concentrations to determine prolongation effects on the APTT, PT, and TT assays. Linear extrapolations are performed to estimate the concentrations required to double the clotting time for each assay.

Human Plasma [3] = assay: Anticoagulation in human plasma, activated partial thromboplastin time (APTT); assay type: biochemical; conditions: concentration required to double the APTT
Experimental: as §5

Human Plasma [4] = assay: Anticoagulation in human plasma, prothrombin time (PT); assay type: biochemical; conditions: concentration required to double the PT
Experimental: as §5

[5] = Index of bioavailability (plasma TT AUC, p.o. vs i.v.); conditions: rats, adjusted for dose
Experimental: Male Sprague Dawley rats (350-425 gm, Harlan Sprague Dawley Inc., Indianapolis, Ind.) are anesthetized with xylazine (20 mg/kg, s.c.) and ketamine (120 mg/kg, s.c.) and maintained on a heated water blanket (37° C.). The jugular vein(s) is cannulated to allow for infusions.
Plasma thrombin time (TT) and activated partial thromboplastin time (APTT) are measured with a fibrometer. Blood is sampled from a jugular catheter and collected in syringe containing sodium citrate (3.8%, 1 part to 9 parts blood). To measure TT, rat plasma (0.1 ml) is mixed with saline (0.1 ml) and bovine thrombin (0.1 ml, 30 U/ml in TRIS buffer; Parke Davis) at 37° C. For APTT, plasma (0.1 ml) and APTT solution (0.1 ml, Organon Teknika are incubated for 5 minutes (37° C.) and CaCl2 (0.01 ml, 0,025M) is added to start coagulation. Assays are done in duplicate and averaged.
The time course of the effect of the thrombin inhibitor upon TT is determined after i.v bolus administration to anesthetized rats and after oral treatment of fasted conscious rats. Due to limitations of blood volume and the number of points required to determine the time course from time of treatment to the time when the response returns to pretreatment values, two populations of rats are used. Each sample population represents alternating sequential time points. The average TT over the time course is used to calculate area under the curve (AUC). The index of bioavailability is calculated by the formula shown below and is expressed as percent relative activity.
The area under the curve (AUC) of the plasma TT time course is determined and adjusted for the dose. This index of bioavailability is termed "% Relative Activity" and is calculated as [formula]
Compound solutions are prepared fresh daily in normal saline and are injected as a bolus or are infused starting 15 min before and continuing throughout the experimental perturbation which is 15 minutes in the arteriovenous shunt model and 60 minutes in the FeCl3 model of arterial injury and in the spontaneous thrombolysis model. Bolus injection volume is 1 ml/kg for i.v., and 5 ml/kg for p.o. and infusion volume is 3 ml/hr.

T2 sequence (P00742 235-488 limits assumed): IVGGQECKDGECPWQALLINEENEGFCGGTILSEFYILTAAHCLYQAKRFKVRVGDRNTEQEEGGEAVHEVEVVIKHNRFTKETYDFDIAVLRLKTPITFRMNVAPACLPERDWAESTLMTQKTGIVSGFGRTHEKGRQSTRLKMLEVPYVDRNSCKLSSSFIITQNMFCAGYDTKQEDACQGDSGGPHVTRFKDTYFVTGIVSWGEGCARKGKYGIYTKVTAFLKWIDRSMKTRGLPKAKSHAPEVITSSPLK
T2 sequence (P00742 41-179 partner limits assumed): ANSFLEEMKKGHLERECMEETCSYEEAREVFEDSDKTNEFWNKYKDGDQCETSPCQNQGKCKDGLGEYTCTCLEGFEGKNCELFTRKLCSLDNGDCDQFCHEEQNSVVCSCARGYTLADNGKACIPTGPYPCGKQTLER
T4 sequence (P00747 581-810 limits assumed): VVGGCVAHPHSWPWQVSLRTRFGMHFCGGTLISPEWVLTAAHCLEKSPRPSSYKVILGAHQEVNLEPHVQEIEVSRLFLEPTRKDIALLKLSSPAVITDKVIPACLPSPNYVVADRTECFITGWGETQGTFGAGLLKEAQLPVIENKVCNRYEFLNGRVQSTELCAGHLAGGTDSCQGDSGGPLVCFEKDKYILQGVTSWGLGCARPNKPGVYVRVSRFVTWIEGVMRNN
T4 sequence (P00747 97-580 partner limits assumed): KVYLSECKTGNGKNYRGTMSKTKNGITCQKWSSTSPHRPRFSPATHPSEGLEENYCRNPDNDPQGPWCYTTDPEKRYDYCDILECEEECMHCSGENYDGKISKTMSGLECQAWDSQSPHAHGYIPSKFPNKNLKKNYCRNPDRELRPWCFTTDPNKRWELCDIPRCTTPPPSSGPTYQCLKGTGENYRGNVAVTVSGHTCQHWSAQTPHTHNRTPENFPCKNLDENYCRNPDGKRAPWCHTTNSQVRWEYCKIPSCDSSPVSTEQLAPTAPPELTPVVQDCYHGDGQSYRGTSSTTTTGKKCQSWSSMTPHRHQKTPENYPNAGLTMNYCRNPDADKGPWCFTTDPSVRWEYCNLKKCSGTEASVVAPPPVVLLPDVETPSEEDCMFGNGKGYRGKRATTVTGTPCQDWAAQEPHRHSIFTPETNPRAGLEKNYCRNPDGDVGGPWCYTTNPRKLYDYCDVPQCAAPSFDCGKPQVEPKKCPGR
T5 sequence (P00750 36-562): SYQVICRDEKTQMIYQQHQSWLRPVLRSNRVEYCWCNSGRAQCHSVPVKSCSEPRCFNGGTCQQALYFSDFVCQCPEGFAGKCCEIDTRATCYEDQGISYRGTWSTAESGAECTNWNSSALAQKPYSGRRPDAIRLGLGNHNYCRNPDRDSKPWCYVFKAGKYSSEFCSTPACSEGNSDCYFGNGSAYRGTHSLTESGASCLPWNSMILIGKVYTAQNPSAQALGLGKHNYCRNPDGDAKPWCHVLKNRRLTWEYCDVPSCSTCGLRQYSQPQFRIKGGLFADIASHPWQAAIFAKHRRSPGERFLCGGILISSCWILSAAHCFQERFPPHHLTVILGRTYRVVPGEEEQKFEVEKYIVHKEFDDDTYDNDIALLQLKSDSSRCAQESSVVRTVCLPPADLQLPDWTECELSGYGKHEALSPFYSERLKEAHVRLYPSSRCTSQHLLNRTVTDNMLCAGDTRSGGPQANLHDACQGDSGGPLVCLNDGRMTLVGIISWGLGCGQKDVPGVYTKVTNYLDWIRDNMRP

| SMILES | Enzyme Kass, Human Thrombin (human thrombin) | Enzyme Kass, Xa (factor Xa) [L/mol × 10^6] | Enzyme Kass, Trypsin (Bovine trypsin) [L/mol × 10^6] | Enzyme Kass, Plasmin (Human plasmin) [L/mol × 10^6] | Enzyme Kass, t-Pa [1] [L/mol × 10^6] | 2 × Clotting time, TT (Human Plasma [2]) [ng/mL] | 2 × Clotting time, APTT (Human Plasma [3]) [ng/mL] | 2 × Clotting time, PT (Human Plasma [4]) [ng/mL] | Index of Bioavailability, % Relative Activity [5] [%] |
| --- | --- | --- | --- | --- | --- | --- | --- | --- | --- |
| CS(=O)(=O)N[C@H](Cc1ccccc1)C(=O)N1CCC[C@H]1C(=O)N[C@H](C=O)CCCNC(=N)N.Cl [Example 7, MeSO2 -D-Phe-Pro-Arg-H.HCl] | 690 L/mol × 10^6 | 2.4 | 220 | 17 | 13 | 21 | 330 | 530 | 27 |
| CCS(=O)(=O)N[C@H](Cc1ccccc1)C(=O)N1CCC[C@H]1C(=O)N[C@H](C=O)CCCNC(=N)N.Cl [Example 8, EtSO2 -D-Phe-Pro-Arg-H-HCl] | 450 L/mol × 10^6 | 2.6 | 260 | 31 | 2.9 | 9 | 260 | 660 | 31 |
| CCCS(=O)(=O)N[C@H](Cc1ccccc1)C(=O)N1CCC[C@H]1C(=O)N[C@H](C=O)CCCNC(=N)N.Cl [Example 9, n-Pr-SO2 -D-Phe-Pro-Arg-H.HCl] | 1,700 L/mol × 10^6 | 13 | 480 | 29 | 2.8 | 6 | 220 | 510 | 14 |
| CCCCS(=O)(=O)N[C@H](Cc1ccccc1)C(=O)N1CCC[C@H]1C(=O)N[C@H](C=O)CCCNC(=N)N.Cl [Example 10, n-Bu-SO2 -D-Phe-Pro-Arg-H.HCl] | 470 L/mol × 10^6 | 8.3 | 230 | 27 | 0.83 | 18 | 300 | 700 | 18 |
